From PubChem BioAssay (NCI)
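Method: 48-hour compound exposure of cells in 96-well plates, five concentrations, linear interpolation of endpoints. The concentration for 50% growth inhibition is given as GI50. TGI: total growth inhibition.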

Legend:
Assay in all cases: DTP human tumour cell line panel, 48 h
UO-31 renal = test system: UO-31 renal
CAKI-1 renal = test system: CAKI-1 renal
HS 578T breast = test system: HS 578T breast
CCRF-CEM leukemia = test system: CCRF-CEM leukemia
NCI-H226 lung = test system: NCI-H226 lung
MALME-3M melanoma = test system: MALME-3M melanoma
NCI-H522 lung = test system: NCI-H522 lung
HCT-116 colon = test system: HCT-116 colon
786-0 renal = test system: 786-0 renal

| Compound | TGI (UO-31 renal) [µM] | TGI (CAKI-1 renal) [µM] | TGI (HS 578T breast) [µM] | TGI (CCRF-CEM leukemia) [µM] | TGI (NCI-H226 lung) [µM] | TGI (MALME-3M melanoma) [µM] | TGI (NCI-H522 lung) [µM] | TGI (HCT-116 colon) [µM] | TGI (786-0 renal) [µM] | GI50 (UO-31 renal) [µM] | GI50 (CAKI-1 renal) [µM] | GI50 (HS 578T breast) [µM] | GI50 (CCRF-CEM leukemia) [µM] | GI50 (NCI-H226 lung) [µM] | GI50 (MALME-3M melanoma) [µM] | GI50 (NCI-H522 lung) [µM] | GI50 (HCT-116 colon) [µM] |
| --- | --- | --- | --- | --- | --- | --- | --- | --- | --- | --- | --- | --- | --- | --- | --- | --- | --- |
| COc1cc2c(cc1OCCCCOc1cc(-c3ccc(F)cc3)nc(C)n1)N=C[C@@H]1CCCN1C2=O | 12 | 2.05 | 2.79 | 3.17 | 4.71 | 1.82 | 2.28 | 8.59 | 6.94 | – | – | – | – | – | – | – | – |
| Oc1ccc(-c2nnc3sc(-c4ccc(F)cc4)nn23)cc1 | > 100 | > 100 | 40.2 | > 100 | > 100 | > 100 | > 100 | – | – | > 100 | 48.8 | 16.1 | 55.7 | 49.6 | > 100 | 62 | – |
| O=C1C(c2c(O)[nH]c3ccc(S(=O)(=O)O)cc23)=Nc2ccccc21 | > 100 | > 100 | > 100 | > 100 | > 100 | > 100 | > 100 | > 100 | > 100 | – | – | – | – | – | – | – | – |
| COc1cc(OCc2ccc3oc(=O)c(-c4ccccc4)nc3c2)cc(OC)c1OC | > 100 | – | > 100 | > 100 | > 100 | > 100 | > 100 | > 100 | > 100 | – | – | – | – | – | – | – | – |
| C[n+]1c(-c2ccccc2)cc2/c(=C\c3ccc([N+](=O)[O-])cc3)c3ccccc3n21 | 35.5 | > 100 | 4.04 | 8.04 | 25.4 | – | 2.8 | 14 | 18.9 | – | – | – | – | – | – | – | – |
| CCCCN1CCN(c2ccc3nc(-c4ccc5nc(-c6ccc(C(F)(F)F)cc6)[nH]c5c4)[nH]c3c2)CC1 | 3.24 | 2.69 | 3.73 | 0.945 | – | – | 3.49 | 1.27 | – | 1.75 | 1.38 | 1.82 | 0.289 | – | – | 1.78 | 0.348 |
| CCC[C@H]1C(=O)N=C(N)N1C(=O)OCc1ccccc1 | > 100 | > 100 | > 100 | – | > 100 | > 100 | > 100 | > 100 | > 100 | – | – | – | – | – | – | – | – |
| Nc1nn2c(C(Br)Br)cc(C(Br)Br)nc2c1[N+](=O)[O-] | 2.5 | 0.954 | 6.28 | 0.51 | 5.5 | 2.14 | 0.248 | 2.23 | 1.08 | – | – | – | – | – | – | – | – |
| COc1cc(C2c3cc4c(cc3OC(NN=C(C)C)C2C)OCO4)cc(OC)c1O (stereo not drawn) | > 100 | > 100 | – | – | > 100 | > 100 | 25.3 | > 100 | > 100 | – | – | – | – | – | – | – | – |
| O=C(NC(Cc1c[nH]c2ccccc12)C(=O)O)/C(=C/c1ccccc1O)NC(=O)c1ccccc1 (stereo not drawn) | 18.7 | 36.9 | 73.3 | > 100 | 61.5 | > 100 | > 100 | > 100 | 46.9 | – | – | – | – | – | – | – | – |
| Cc1ccc(S(=O)(=O)Oc2cc(N)c3c(n2)CCC3)cc1 | > 100 | > 100 | > 100 | > 100 | > 100 | – | – | > 100 | > 100 | – | – | – | – | – | – | – | – |
| CCOP(=O)(OCC)C1C(CO)OC(n2ccc(=O)[nH]c2=O)C1O (stereo not drawn) | > 100 | > 100 | > 100 | – | > 100 | > 100 | > 100 | > 100 | > 100 | – | – | – | – | – | – | – | – |
| CC(C)(C)N=c1n(C(C)(C)C)oc(=O)n1C(C)(C)C | > 100 | > 100 | > 100 | > 100 | > 100 | > 100 | – | > 100 | > 100 | – | – | – | – | – | – | – | – |
| O=C(CN1CCCCC1)CC(O)(C(F)(F)F)C(F)(F)F | > 100 | > 100 | > 100 | > 100 | > 100 | > 100 | > 100 | > 100 | > 100 | – | – | – | – | – | – | – | – |
| O=C1CCC(=Nc2ccc(Cl)cc2)N1C(=O)COc1ccc(OCC(=O)N2C(=O)CSC2=Nc2ccc(Cl)cc2)cc1 | > 100 | > 100 | > 100 | – | > 100 | > 100 | > 100 | > 100 | > 100 | – | – | – | – | – | – | – | – |
| CN(C)c1ccc(-c2c(C#N)c(S)n(NS(=O)(=O)c3ccccc3)c(=O)c2C#N)cc1 | 86.4 | 76.1 | – | > 100 | – | > 100 | 44.5 | > 100 | 40.6 | – | – | – | – | – | – | – | – |
| Cc1nn(C(=O)Cc2ccccc2)c2c1C(c1ccccc1O)SC(N)=N2 (stereo not drawn) | > 100 | > 100 | > 100 | > 100 | > 100 | > 100 | > 100 | > 100 | > 100 | – | – | – | – | – | – | – | – |
| CC1(C)O[C@@H]2COC(=O)[C@@H]2O1 | > 100 | > 100 | > 100 | > 100 | > 100 | > 100 | > 100 | > 100 | > 100 | – | – | – | – | – | – | – | – |
| O=C(O)C1CC(c2ccc(F)cc2)=Nc2ccc(F)cc2S1 (stereo not drawn) | > 100 | > 100 | > 100 | > 100 | > 100 | > 100 | > 100 | > 100 | > 100 | – | – | – | – | – | – | – | – |
| CN(C)NC(=S)Nc1ccccc1Br | > 100 | > 100 | > 100 | > 100 | > 100 | > 100 | > 100 | > 100 | > 100 | – | – | – | – | – | – | – | – |
| COc1ccc(CC(CO)NC(=O)OCc2ccccc2)cc1Oc1ccc(CC(CO)NC(=O)OCc2ccccc2)cc1 (stereo not drawn) | 31.4 | 44.5 | – | 66.6 | – | 31.4 | 18.4 | 32.3 | – | – | – | – | – | – | – | – | – |
| CCCCOC(C)(C)/C=C/C(O)[C@](C)(O)[C@H]1[C@H](O)C[C@@]2(C)[C@@H]3CCc4c(cc(OC5OC(CO)C(O)C(O)C5O)c(O)c4C)C3(C)C(=O)C[C@]12C (stereo partly drawn) | > 100 | > 100 | – | > 100 | > 100 | > 100 | > 100 | > 100 | > 100 | – | – | – | – | – | – | – | – |
| Cc1cn2c(/C=C3/C(=O)Nc4cccc(Cl)c43)c(Cl)nc2s1 | > 100 | > 100 | 42.5 | 28 | – | > 100 | > 100 | > 100 | > 100 | – | – | – | – | – | – | – | – |
